# Measurements published in ChEMBL document CHEMBL1144969, “Structure-based design of thioether-bridged cyclic phosphopeptides binding to Grb2-SH2 domain” (Bioorg Med Chem Lett, 2003).
# Starred links: 1 amine or outer side, 2 acyl side, 3 side chain; linkers in the order of their positions; H or OH if unused. Positions of bridges follow the written chain, without caps; N, C: chain ends. Non-standard residues stand in square brackets, D forms with d. Residues, ends and D or L forms follow the SMILES beside them. pY = N[C@@H](Cc1ccc(OP(=O)(O)O)cc1)C(=O)O; tBuAla = CC(C)(C)C[C@H](N)C(=O)O; X1 = O=C(C[*:2])NCCC(=O)[*:1]; hCys = N[C@@H](CCS)C(=O)O; Ac6c = NC1(C(=O)O)CCCCC1
# Biological target: Growth factor receptor-bound protein 2 (Homo sapiens, UniProt P62993)
# Test: Inhibition of Growth factor receptor-bound protein 2 (Grb2) SH2 domain binding by ELISA
row,Structure (SMILES),IC50
1,CSCC[C@@H]1NC(=O)CNC(=O)[C@H](C(C)C)NC(=O)[C@H](CC(N)=O)NC(=O)C2(CCCCC2)NC(=O)[C@H](Cc2ccc(OP(=O)(O)O)cc2)NC(=O)[C@H](CC(C)C)NC(=O)CCNC(=O)CSC[C@@H](C(N)=O)NC(=O)[C@H](Cc2ccc(O)cc2)NC1=O (L[pY][Ac6c]NVGMYC-NH2; linker N-9 via X1),21 nM
2,CC(C)[C@@H]1NC(=O)[C@H](CC(N)=O)NC(=O)C2(CCCCC2)NC(=O)[C@H](Cc2ccc(OP(=O)(O)O)cc2)NC(=O)[C@H](Cc2ccccc2)NC(=O)[C@H](C)NC(=O)CSC[C@@H](C(N)=O)NC(=O)[C@H](Cc2ccc(O)cc2)NC(=O)[C@H](CC(C)(C)C)NC(=O)CNC1=O ({CH2CO}-AF[pY][Ac6c]NVG[tBuAla]YC-NH2; thioether N-10),1.68 nM
3,CSCC[C@@H]1NC(=O)CNC(=O)[C@H](C(C)C)NC(=O)[C@H](CC(N)=O)NC(=O)[C@H](CCC(=O)O)NC(=O)[C@H](Cc2ccc(OP(=O)(O)O)cc2)NC(=O)[C@H](CC(C)C)NC(=O)[C@H](C)NC(=O)CSC[C@@H](C(N)=O)NC(=O)[C@H](Cc2ccc(O)cc2)NC1=O ({CH2CO}-AL[pY]ENVGMYC-NH2; thioether N-10),25.3 nM
4,CC(C)C[C@@H]1NC(=O)[C@H](C)NC(=O)CSC[C@@H](C(N)=O)NC(=O)[C@H](Cc2ccc(O)cc2)NC(=O)[C@H](CC(C)(C)C)NC(=O)CNC(=O)[C@H](C(C)C)NC(=O)[C@H](CC(N)=O)NC(=O)[C@H](CCC(=O)O)NC(=O)[C@H](Cc2ccc(OP(=O)(O)O)cc2)NC1=O ({CH2CO}-AL[pY]ENVG[tBuAla]YC-NH2; thioether N-10),14.5 nM
5,CSCC[C@@H]1NC(=O)CNC(=O)[C@H](C(C)C)NC(=O)[C@H](CC(N)=O)NC(=O)[C@H](CCC(=O)O)NC(=O)[C@H](Cc2ccc(OP(=O)(O)O)cc2)NC(=O)[C@H](CC(C)C)NC(=O)[C@H](CCC(=O)O)NC(=O)CSC[C@@H](C(N)=O)NC(=O)[C@H](Cc2ccc(O)cc2)NC1=O ({CH2CO}-EL[pY]ENVGMYC-NH2; thioether N-10),137 nM
6,CSCC[C@@H]1NC(=O)CNC(=O)[C@H](C(C)C)NC(=O)[C@H](CC(N)=O)NC(=O)[C@H](CCC(=O)O)NC(=O)[C@H](Cc2ccc(OP(=O)(O)O)cc2)NC(=O)[C@H](CC(C)C)NC(=O)CNC(=O)CSC[C@@H](C(N)=O)NC(=O)[C@H](Cc2ccc(O)cc2)NC1=O ({CH2CO}-GL[pY]ENVGMYC-NH2; thioether N-10),31.5 nM
7,CSCC[C@@H]1NC(=O)CNC(=O)[C@H](C(C)C)NC(=O)[C@H](CC(N)=O)NC(=O)[C@H](CCC(=O)O)NC(=O)[C@H](Cc2ccc(OP(=O)(O)O)cc2)NC(=O)[C@H](CC(C)C)NC(=O)[C@@H]2CCCN2C(=O)CSC[C@@H](C(N)=O)NC(=O)[C@H](Cc2ccc(O)cc2)NC1=O ({CH2CO}-PL[pY]ENVGMYC-NH2; thioether N-10),75.7 nM
8,CC(C)C[C@@H]1NC(=O)[C@@H]2CCCN2C(=O)CSC[C@@H](C(N)=O)NC(=O)[C@H](Cc2ccc(O)cc2)NC(=O)[C@H](CC(C)(C)C)NC(=O)CNC(=O)[C@H](C(C)C)NC(=O)[C@H](CC(N)=O)NC(=O)C2(CCCCC2)NC(=O)[C@H](Cc2ccc(OP(=O)(O)O)cc2)NC1=O ({CH2CO}-PL[pY][Ac6c]NVG[tBuAla]YC-NH2; thioether N-10),7.65 nM

# The next lines start with the values.
row,IC50,Structure (SMILES)
1,8.26 nM,CSCC[C@@H]1NC(=O)CNC(=O)[C@H](C(C)C)NC(=O)[C@H](CC(N)=O)NC(=O)[C@H](CCC(=O)O)NC(=O)[C@H](Cc2ccc(OP(=O)(O)O)cc2)NC(=O)[C@H](CC(C)C)NC(=O)CCNC(=O)CSC[C@@H](C(N)=O)NC(=O)[C@H](Cc2ccc(O)cc2)NC1=O (L[pY]ENVGMYC-NH2; linker N-9 via X1)
2,54.7 nM,CSCC[C@@H]1NC(=O)CNC(=O)[C@H](C(C)C)NC(=O)[C@H](CC(N)=O)NC(=O)[C@H](CCC(=O)O)NC(=O)[C@H](Cc2ccc(OP(=O)(O)O)cc2)NC(=O)[C@H](CC(C)C)NC(=O)[C@H](C)NC(=O)CSCC[C@@H](C(N)=O)NC(=O)[C@H](Cc2ccc(O)cc2)NC1=O ({CH2CO}-AL[pY]ENVGMY[hCys]-NH2; thioether N-10)
3,13.3 nM,CC(C)C[C@@H]1NC(=O)[C@H](C)NC(=O)CSC[C@@H](C(N)=O)NC(=O)[C@H](Cc2ccc(O)cc2)NC(=O)[C@H](C)NC(=O)CNC(=O)[C@H](C(C)C)NC(=O)[C@H](CC(N)=O)NC(=O)C2(CCCCC2)NC(=O)[C@H](Cc2ccc(OP(=O)(O)O)cc2)NC1=O ({CH2CO}-AL[pY][Ac6c]NVGAYC-NH2; thioether N-10)
4,3.77 nM,CSCC[C@@H]1NC(=O)CNC(=O)[C@H](C(C)C)NC(=O)[C@H](CC(N)=O)NC(=O)C2(CCCCC2)NC(=O)[C@H](Cc2ccc(OP(=O)(O)O)cc2)NC(=O)[C@H](CC(C)C)NC(=O)[C@H](C)NC(=O)CSC[C@@H](C(N)=O)NC(=O)[C@H](Cc2ccc(O)cc2)NC1=O ({CH2CO}-AL[pY][Ac6c]NVGMYC-NH2; thioether N-10)
